Columns and labels:
Adenosine receptor A1 = target: T1, Adenosine receptor A1 (Homo sapiens, UniProt P30542); assay type: cell membranes, CHO, Membrane;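 also: radioligand binding assay at the adenosine A1 receptor, with DPCPX serving as the labelled ligand; in other assays of this panel Not Active means under 50% inhibition at 10 µM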
T1 sequence (P30542 whole entry): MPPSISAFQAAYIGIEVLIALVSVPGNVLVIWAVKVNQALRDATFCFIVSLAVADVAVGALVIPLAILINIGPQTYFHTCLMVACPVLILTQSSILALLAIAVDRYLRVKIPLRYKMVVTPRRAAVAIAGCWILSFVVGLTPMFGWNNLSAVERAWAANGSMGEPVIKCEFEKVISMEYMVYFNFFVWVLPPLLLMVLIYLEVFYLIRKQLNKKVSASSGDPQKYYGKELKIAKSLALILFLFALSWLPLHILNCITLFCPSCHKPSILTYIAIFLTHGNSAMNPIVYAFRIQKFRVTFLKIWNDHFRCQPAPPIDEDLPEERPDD

[1] = target: Platelet-activating factor receptor (Homo sapiens, UniProt P25105); assay type: tissue-based; also: in other assays of this panel Not Active means under 50% inhibition at 10 µM
[2] = target: C-C chemokine receptor type 2 (Homo sapiens, UniProt P41597); assay type: cell membranes, Membrane; details: cho-k1; also: in other assays of this panel Not Active means under 50% inhibition at 10 µM
Vasopressin V1a receptor = Vasopressin V1a receptor (Homo sapiens, UniProt P37288); assay type: cell membranes, Membrane; details: hek293; also: in other assays of this panel Not Active means under 50% inhibition at 10 µM
[3] = target: T2, Neuropeptide Y receptor type 2 (Homo sapiens, UniProt P49146); assay type: cell membranes, KAN-TS, Membrane; details: kan-ts; also: in other assays of this panel Not Active means under 50% inhibition at 10 µM
T2 sequence (P49146 whole entry): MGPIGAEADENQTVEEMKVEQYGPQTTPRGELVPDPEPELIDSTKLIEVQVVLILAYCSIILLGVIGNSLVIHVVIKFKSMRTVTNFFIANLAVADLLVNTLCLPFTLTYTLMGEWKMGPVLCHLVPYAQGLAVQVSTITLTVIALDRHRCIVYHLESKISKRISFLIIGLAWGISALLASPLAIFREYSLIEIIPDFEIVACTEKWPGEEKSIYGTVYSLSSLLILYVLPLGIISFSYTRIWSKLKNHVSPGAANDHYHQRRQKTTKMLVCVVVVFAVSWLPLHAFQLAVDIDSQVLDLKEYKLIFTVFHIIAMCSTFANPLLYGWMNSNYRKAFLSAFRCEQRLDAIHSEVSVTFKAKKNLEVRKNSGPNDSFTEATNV

[4] = target: T3, C-C chemokine receptor type 4 (Homo sapiens, UniProt P51679); assay type: cell membranes, Membrane; details: chem-1; also: in other assays of this panel Not Active means under 50% inhibition at 10 µM
T3 sequence (P51679 whole entry): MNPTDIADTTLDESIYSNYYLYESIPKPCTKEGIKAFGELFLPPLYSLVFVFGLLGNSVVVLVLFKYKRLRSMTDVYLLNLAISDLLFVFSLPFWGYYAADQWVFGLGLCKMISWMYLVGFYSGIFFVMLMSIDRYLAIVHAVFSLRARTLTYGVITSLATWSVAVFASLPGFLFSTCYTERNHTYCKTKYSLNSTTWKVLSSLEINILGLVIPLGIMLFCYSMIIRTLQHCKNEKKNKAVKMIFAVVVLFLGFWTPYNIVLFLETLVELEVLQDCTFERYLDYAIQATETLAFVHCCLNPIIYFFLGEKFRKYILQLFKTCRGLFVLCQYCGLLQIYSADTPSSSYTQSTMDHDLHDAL

[5] = target: Mitogen-activated protein kinase 1 (Homo sapiens, UniProt P28482); test: DRUGMATRIX: Protein Serine/Threonine Kinase, ERK2 enzyme inhibition (substrate: Myelin Basic Protein); parameters: species or system Escherichia coli; details: Not Active = under 50% inhibition at 10 µM
Sequence of Mitogen-activated protein kinase 1 (P28482 whole entry): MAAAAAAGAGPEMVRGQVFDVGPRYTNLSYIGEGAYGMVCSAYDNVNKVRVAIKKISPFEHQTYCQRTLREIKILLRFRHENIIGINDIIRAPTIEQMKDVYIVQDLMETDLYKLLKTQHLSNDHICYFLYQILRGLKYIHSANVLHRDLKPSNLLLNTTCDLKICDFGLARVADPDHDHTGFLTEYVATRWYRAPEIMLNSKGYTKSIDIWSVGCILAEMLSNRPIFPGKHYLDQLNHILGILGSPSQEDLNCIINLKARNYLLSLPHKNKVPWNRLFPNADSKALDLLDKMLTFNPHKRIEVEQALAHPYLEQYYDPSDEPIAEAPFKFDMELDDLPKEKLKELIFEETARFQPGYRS

Sequence of Platelet-activating factor receptor (P25105 whole entry): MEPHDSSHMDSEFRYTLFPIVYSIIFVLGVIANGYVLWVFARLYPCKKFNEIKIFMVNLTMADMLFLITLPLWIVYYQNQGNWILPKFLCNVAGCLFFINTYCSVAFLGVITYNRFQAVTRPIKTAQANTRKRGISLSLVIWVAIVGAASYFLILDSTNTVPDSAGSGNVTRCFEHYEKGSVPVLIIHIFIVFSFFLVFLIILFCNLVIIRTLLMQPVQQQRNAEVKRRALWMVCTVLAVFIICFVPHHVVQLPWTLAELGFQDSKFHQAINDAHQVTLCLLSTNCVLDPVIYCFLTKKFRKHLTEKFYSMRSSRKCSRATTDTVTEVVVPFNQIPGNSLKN
Sequence of C-C chemokine receptor type 2 (P41597 whole entry): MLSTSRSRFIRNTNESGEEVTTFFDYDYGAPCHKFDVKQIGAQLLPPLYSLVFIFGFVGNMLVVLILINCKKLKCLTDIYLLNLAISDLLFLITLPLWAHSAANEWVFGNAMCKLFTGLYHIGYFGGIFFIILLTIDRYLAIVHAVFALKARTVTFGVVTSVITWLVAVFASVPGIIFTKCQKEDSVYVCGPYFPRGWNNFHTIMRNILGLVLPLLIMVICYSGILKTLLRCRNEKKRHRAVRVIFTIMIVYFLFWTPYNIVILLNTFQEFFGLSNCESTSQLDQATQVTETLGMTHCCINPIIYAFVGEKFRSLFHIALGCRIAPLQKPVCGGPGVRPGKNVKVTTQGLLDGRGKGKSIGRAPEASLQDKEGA
Sequence of Vasopressin V1a receptor (P37288 whole entry): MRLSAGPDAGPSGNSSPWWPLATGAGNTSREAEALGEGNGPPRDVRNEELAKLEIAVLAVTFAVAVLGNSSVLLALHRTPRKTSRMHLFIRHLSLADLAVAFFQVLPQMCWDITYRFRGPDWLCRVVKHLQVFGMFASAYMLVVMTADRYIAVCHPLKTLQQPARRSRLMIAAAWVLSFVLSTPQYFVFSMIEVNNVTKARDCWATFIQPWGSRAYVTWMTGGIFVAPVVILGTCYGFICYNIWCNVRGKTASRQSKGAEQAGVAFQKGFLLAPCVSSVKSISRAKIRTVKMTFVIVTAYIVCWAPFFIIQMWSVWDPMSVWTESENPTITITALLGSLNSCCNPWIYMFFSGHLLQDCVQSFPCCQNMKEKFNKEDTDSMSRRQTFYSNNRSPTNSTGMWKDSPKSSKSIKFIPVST

Cn1c(=O)c2c(ncn2CC(O)CO)n(C)c1=O (centres undefined) [DYPHYLLINE]
Not Active: IC50 (Adenosine receptor A1; cho) | IC50 [1] | IC50 [2] | IC50 (Vasopressin V1a receptor) | IC50 [3] | IC50 [4] | IC50 [5]

O=C(O)c1cccnc1Nc1cccc(C(F)(F)F)c1 [NIFLUMIC ACID]
Not Active: IC50 (Adenosine receptor A1; cho) | IC50 [1] | IC50 [2] | IC50 (Vasopressin V1a receptor) | IC50 [3] | IC50 [4] | IC50 [5]

CC(C)c1cccc(C(C)C)c1O [PROPOFOL]
Not Active: IC50 (Adenosine receptor A1; cho) | IC50 [1] | IC50 [2] | IC50 (Vasopressin V1a receptor) | IC50 [3] | IC50 [4] | IC50 [5]

COC(=O)Nc1nc2ccc(C(=O)c3cccs3)cc2[nH]1 [NOCODAZOLE]
50.3 µM: IC50 (Adenosine receptor A1; read-out: IC50)
Not Active: IC50 [1] | IC50 [2] | IC50 (Vasopressin V1a receptor) | IC50 [3] | IC50 [4] | IC50 [5]
29.4 µM: Ki (Adenosine receptor A1; read-out: Ki)

N=C(N)NC(=O)Cc1c(Cl)cccc1Cl [GUANFACINE]
Not Active: IC50 (Adenosine receptor A1; cho) | IC50 [1] | IC50 [2] | IC50 (Vasopressin V1a receptor) | IC50 [3] | IC50 [4] | IC50 [5]

CC(C)NCC(O)COc1cccc2[nH]ccc12 (centres undefined) [PINDOLOL]
Not Active: IC50 (Adenosine receptor A1; cho) | IC50 [1] | IC50 [2] | IC50 (Vasopressin V1a receptor) | IC50 [3] | IC50 [4] | IC50 [5]

CC(=O)[C@@]1(O)CC[C@H]2[C@@H]3CCC4=CC(=O)CC[C@]4(C)[C@H]3CC[C@@]21C [HYDROXYPROGESTERONE]
Not Active: IC50 (Adenosine receptor A1; cho) | IC50 [1] | IC50 [2] | IC50 (Vasopressin V1a receptor) | IC50 [3] | IC50 [4] | IC50 [5]

CC(=O)O[C@H]1C(=O)[C@@]2(C)[C@H]([C@H](OC(=O)c3ccccc3)[C@]3(O)C[C@H](OC(=O)[C@H](O)[C@@H](NC(=O)c4ccccc4)c4ccccc4)C(C)=C1C3(C)C)[C@]1(OC(C)=O)CO[C@@H]1C[C@@H]2O [PACLITAXEL]
Not Active: IC50 (Adenosine receptor A1; cho) | IC50 [1] | IC50 [2] | IC50 (Vasopressin V1a receptor) | IC50 [3] | IC50 [4] | IC50 [5]

CCCOc1ccc(C(=O)OCCN(CC)CC)cc1N [PROPARACAINE]
Not Active: IC50 (Adenosine receptor A1; cho) | IC50 [1] | IC50 [2] | IC50 (Vasopressin V1a receptor) | IC50 [3] | IC50 [4] | IC50 [5]

O=C(N/N=C/c1ccc([N+](=O)[O-])o1)c1cc([N+](=O)[O-])cc([N+](=O)[O-])c1O [NIFURSOL]
Not Active: IC50 (Adenosine receptor A1; cho) | IC50 [1] | IC50 [2] | IC50 (Vasopressin V1a receptor) | IC50 [3] | IC50 [4] | IC50 [5]

CC(=O)Oc1ccc(C(c2ccc(OC(C)=O)cc2)c2ccccn2)cc1 [BISACODYL]
Not Active: IC50 (Adenosine receptor A1; cho) | IC50 [1] | IC50 [2] | IC50 (Vasopressin V1a receptor) | IC50 [3] | IC50 [4] | IC50 [5]

CN(C)[C@@H]1C(O)=C(C(N)=O)C(=O)[C@@]2(O)C(O)=C3C(=O)c4c(O)ccc(Cl)c4[C@@](C)(O)[C@H]3C[C@@H]12 [CHLORTETRACYCLINE]
Not Active: IC50 (Adenosine receptor A1; cho) | IC50 [1] | IC50 [2] | IC50 (Vasopressin V1a receptor) | IC50 [3] | IC50 [4] | IC50 [5]

Nc1ccn([C@@H]2O[C@H](CO)[C@@H](O)[C@@H]2O)c(=O)n1 [CYTARABINE]
Not Active: IC50 (Adenosine receptor A1; cho) | IC50 [1] | IC50 [2] | IC50 (Vasopressin V1a receptor) | IC50 [3] | IC50 [4] | IC50 [5]

CCC1(CCC(C)C)C(=O)NC(=O)NC1=O [AMOBARBITAL]
Not Active: IC50 (Adenosine receptor A1; cho) | IC50 [1] | IC50 [2] | IC50 (Vasopressin V1a receptor) | IC50 [3] | IC50 [4] | IC50 [5]

Source: ChEMBL document CHEMBL1909046, “DrugMatrix in vitro pharmacology data”
